Experimental data reported in paper PMC9600550, “The pH Robustness of Bacterial Sensing” (mBio, 2022).
“And” between values parts separate entries of the source, which are not always exact repeats. Equal entries are not always repeated. Where two headings read alike, the source gives them in different places.

Tests used:
CtpM-LBD = target: T1, CtpM-LBD (Pseudomonas aeruginosa, UniProt Q9I0I6); experiment: ITC titration of CtpM-LBD with L-malate at different pH; assay type: binding, P. aeruginosa PAO1
T1 construct: containing a DNA fragment encoding the CtpM (PA2652)-LBD; made in house

McpS-Tar = target: T2, McpS-Tar (UniProt P07017+Q88E10); experiment: FRET (CheY-YFP/CheZ-CFP) chemotaxis pathway response, McpS-Tar hybrid as sole chemoreceptor; assay type: cell-based; details: E. coli VS181 with McpS-Tar as sole chemoreceptor, read-out: EC50 (half-maximal effective concentration), FRET titration
T2 construct: 295]-Tar[200-553] receptor; expressed in transfected cells; host or cells: receptorless E. coli VS181, plasmid pSB10 (pKG116 derivative)

McpS-LBD = target: T3, McpS-LBD (Pseudomonas putida, UniProt Q88E10); experiment: ITC titration of McpS-LBD with L-malate at different pH; assay type: binding, P. putida KT2440; details: 25°C
T3 construct: pET28b(+) derivative containing a DNA fragment encoding the McpS-LBD; made in house

Tar-LBD [1] = target: T4, Tar-LBD (Escherichia coli, UniProt P07017); experiment: Differential scanning calorimetry of Tar-LBD thermal unfolding in presence of L-Asp; parameters: species or system E. coli K12; details: 1 mM L-Asp
T4 construct: A DNA fragment encoding the Tar-LBD (amino acids 31 to 188) was amplified from genomic DNA of E. coli K12; His tag (from pET28b(+)) (N); made in house; host or cells: Escherichia coli BL21(DE3)
Protocol: Differential scanning calorimetry (DSC) provides information on the thermodynamics of protein unfolding. At 5.0, the optimal pH for binding and dimerization, Tar-LBD formed a sharp peak with or without 1 mM L-Asp (Fig. 5B and C, and Table S3), indicative of highly cooperative unfolding. […] We thus conclude that at all pH values tested, at least some of the protein was present in the dimeric form and capable of binding ligand.
Experiments were conducted on a MicroCal DSC-PEAQ system (Malvern Panalytical) at a scan rate of 90°C/h over a temperature range of 10°C to 85°C. Calorimetric cells (operating volume 0.134 mL) were kept under pressure (60 lb/in^2) to prevent sample degassing. Buffer-buffer baselines obtained after each assay were subtracted from the signal obtained from each of the samples. Protein samples were prepared as detailed in the “Analytical ultracentrifugation” section. The calorimetric enthalpies were estimated by integration of the transition peaks after subtracting the buffer-buffer baselines and fitting the curves to a “Non-two-state” model using MicroCal DSC-PEAQ software. For graphical clarity of the plots, baselines were manually curated and raw data were smoothed with the Savitzky-Golay algorithm.

Tar-LBD [2] = target: T4, Tar-LBD; experiment: ITC titration of Tar-LBD with L-aspartate at different pH; assay type: binding, E. coli K12; details: for pH range of binding: defined as binding with a KD below 1 mM
Tar = target: T5, Tar (Escherichia coli, UniProt P07017); experiment: FRET (CheY-YFP/CheZ-CFP) chemotaxis pathway response, Tar as sole chemoreceptor; assay type: cell-based; details: E. coli VS181 with Tar as sole chemoreceptor, read-out: EC50 (half-maximal effective concentration), FRET titration
T5 construct: expressed in transfected cells; host or cells: receptorless E. coli VS181, plasmid pSB13 (pKG116 derivative)

Tar-LBD [3] = target: T4, Tar-LBD; experiment: Sedimentation-velocity analytical ultracentrifugation of Tar-LBD with and without L-Asp; parameters: species or system E. coli K12; details: 1 mM ligand; all pH values analysed (3.5, 5.0, 7.0, 10.0)
Protocol: To estimate the sedimentation coefficient expected for the monomeric and dimeric states of the Tar-LBD, a hydrodynamic model was generated from the 3D structure of the protein (pdb ID 4Z9H) ([45]). Using the HYDROPRO software, the theoretical sedimentation coefficients were s(20,w) = 2.12 S for the monomer and 3.54 S for the dimer (Fig. 5A).
Experiments were conducted on a ProteomeLab XL-I instrument (Beckman-Coulter) equipped with interference and absorbance optics. Sedimentation was carried out at 42,000 rpm and 10°C in an eight-hole Ti-50 Beckman Coulter rotor and monitored with absorbance optics at 280 nm in continuous mode. Samples were dialyzed into 4 different buffers, namely, 10 mM citric acid/sodium citrate, pH 3.5; 10 mM citric acid/sodium citrate, pH 5.0; 3 mM Tris, 3 mM PIPES, 3 mM MES, pH 7.0, and 10 mM Na2CO3/NaHCO3, pH 10.0. […] Density and viscosity of the buffer were calculated with [sequence] […] To assign the sedimentation coefficient observed to the corresponding oligomeric species, theoretical s values were calculated via HYDROPRO ([92]) hydrodynamic modeling software, applied to the 3D structure of the Tar-LBD monomer and dimer (pdb ID 4H9Z), with a 2.9 Å radius for the primary elements.

McpV-LBD = McpV-LBD (Sinorhizobium meliloti, UniProt Q7APD1); experiment: ITC titration of McpV-LBD with propionate at different pH; assay type: binding, Sinorhizobium meliloti RU11/001
McpH-LBD = target: T6, McpH-LBD (Pseudomonas putida, UniProt Q88R14); experiment: ITC titration of McpH-LBD with adenine at different pH; assay type: binding, P. putida KT2440; details: 25°C
T6 construct: pET28b(+) derivative containing a DNA fragment encoding the McpH-LBD; made in house

McpQ-LBD = target: T7, McpQ-LBD (Pseudomonas putida, UniProt Q88D09); experiment: ITC titration of McpQ-LBD with citrate at different pH; assay type: binding, P. putida KT2440; details: 25°C
T7 construct: pET28b(+) derivative containing a DNA fragment encoding the McpQ-LBD; made in house

MBP = target: T8, MBP (Escherichia coli, UniProt P0AEX9); experiment: ITC titration of maltose-binding protein (MBP) with D-maltose at different pH; parameters: species or system E. coli K12
T8 construct: His tag (from pET28b(+)) (N); made in house; host or cells: Escherichia coli BL21(DE3)

TtgV = target: T9, TtgV (Pseudomonas putida, UniProt Q93PU6); experiment: ITC titration of TtgV with benzonitrile at different pH; assay type: binding, P. putida DOT-T1E; details: 25°C
T9 construct: made in house

PcaY_PP-LBD = target: T10, PcaY_PP-LBD (Pseudomonas putida, UniProt Q88JK6); experiment: ITC titration of PcaY_PP-LBD with quinate at different pH; assay type: binding, P. putida KT2440
T10 construct: made in house
Protocol: (§1) To assess the pH dependence of ligand-binding, freshly purified proteins were dialyzed overnight into the buffers described in Table S1 and submitted to microcalorimetric titration.
(§2) Freshly purified proteins were dialyzed into the buffers specified in Table S1 and introduced into the sample cell of an VP-microcalorimeter (MicroCal). Proteins at 15 to 100 μM were titrated with 0.25 to 10 mM ligand solutions that were made up in dialysis buffer. For pH-active ligands, the pH of the ligand solutions was adjusted to that of the dialysis buffer by the addition of concentrated HCl or NaOH. Titrations of MBP and McpV-LBD were conducted at 15°C to favor endothermic contributions to binding heats, whereas the remaining titrations were carried out at 25°C. Raw titration data were integrated, corrected for ligand-dilution heats and normalized with the ligand concentrations. Resulting data were fitted with the “One Binding site model” of the MicroCal version of ORIGIN. Provided are the dissociation constants derived from one experiment and the error of curve-fitting.

AdmX-LBD = AdmX-LBD (Serratia plymuthica, UniProt P0DV33); experiment: ITC titration of AdmX-LBD with indole-3-pyruvic acid at different pH; assay type: binding, Serratia plymuthica A153
TodS-Nter = TodS-Nter (Pseudomonas putida, UniProt E0X9C7); experiment: biochemical
Protocol: as §1, §2

McpU-LBD = McpU-LBD (Pseudomonas putida, UniProt Q88NI1); experiment: biochemical
Protocol: as §1, §2

P. aeruginosa PAO1 = experiment: Quantitative capillary chemotaxis assay at different pH; assay type: cell-based; details: 1 mM ligand
Protocol: We evaluated the effect of pH on P. aeruginosa chemotaxis to L-Ala, a ligand of the PctA chemoreceptor, using the quantitative capillary chemotaxis assay. Prior to performing these assays, we evaluated cell viability and motility at different pH values. We grew cells in minimal medium to an OD660 of 0.4, washed twice with chemotaxis buffer at the different pH values, resuspended in the corresponding buffer, and incubated for 1 h. Cells were then plated out to assess cell viability. […] We then determined the effect of different pH on the chemotactic responses to L-Ala.
Chemotaxis assays were performed as previously described ([79]) with some modifications. When cultures reached an OD660 of 0.4, the cells were gently washed twice with chemotaxis buffer at different pH and then resuspended in fresh buffer. The chemoeffector solutions were prepared in the corresponding chemotaxis buffer. Data are the means and standard deviations of at least 3 biological replicates conducted in triplicate.

PctA-LBD = target: T11, PctA-LBD (Pseudomonas aeruginosa, UniProt G3XD24); experiment: ITC titration of PctA-LBD with L-alanine at different pH; assay type: binding, P. aeruginosa PAO1
T11 construct: pET28b(+) derivative containing a DNA fragment encoding the PctA-LBD; made in house

[4] = target: the molecule itself; experiment: AUC; sedimentation velocity with 1 mM L-Asp, 35 uM protein, pH 3.5, 5.0, 7.0 and 10.0, 10°C, 42,000 rpm; monomer to dimer
[5] = 25°C, defined as binding with a KD below 1 mM
[6] = defined as binding with a KD below 1 mM
[7] = 15°C, defined as binding with a KD below 1 mM
[8] = pH 6.0, read-out: KD at pH optimum
[9] = ITC, 25°C, defined as binding with a KD below 1 mM

T9 sequence (Q93PU6 whole entry): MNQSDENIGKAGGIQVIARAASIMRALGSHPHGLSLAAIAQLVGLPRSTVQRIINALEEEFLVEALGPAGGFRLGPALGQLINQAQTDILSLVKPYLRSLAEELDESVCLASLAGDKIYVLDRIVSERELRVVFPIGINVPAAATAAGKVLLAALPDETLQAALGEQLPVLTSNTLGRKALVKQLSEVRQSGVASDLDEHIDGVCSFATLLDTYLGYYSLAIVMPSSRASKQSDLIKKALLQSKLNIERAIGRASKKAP
T2 sequence (Q88E10+P07017 fused): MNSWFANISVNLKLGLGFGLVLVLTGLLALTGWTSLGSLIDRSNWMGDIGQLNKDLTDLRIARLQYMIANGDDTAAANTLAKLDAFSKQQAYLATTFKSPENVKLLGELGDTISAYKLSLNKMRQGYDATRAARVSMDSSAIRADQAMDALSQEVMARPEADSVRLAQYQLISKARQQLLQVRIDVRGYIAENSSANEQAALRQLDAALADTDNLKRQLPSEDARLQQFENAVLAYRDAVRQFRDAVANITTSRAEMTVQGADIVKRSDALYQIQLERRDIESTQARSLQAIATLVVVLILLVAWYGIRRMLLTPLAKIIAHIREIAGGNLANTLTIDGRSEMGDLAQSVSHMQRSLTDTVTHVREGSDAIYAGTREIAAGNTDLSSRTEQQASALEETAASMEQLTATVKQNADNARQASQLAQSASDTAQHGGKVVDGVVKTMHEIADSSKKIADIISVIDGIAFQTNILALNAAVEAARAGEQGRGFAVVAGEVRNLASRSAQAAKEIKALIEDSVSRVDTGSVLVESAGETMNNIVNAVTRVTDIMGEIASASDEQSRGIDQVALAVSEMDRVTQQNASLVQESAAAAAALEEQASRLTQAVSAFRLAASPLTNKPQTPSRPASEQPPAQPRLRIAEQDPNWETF
T3 sequence (Q88E10 41-283): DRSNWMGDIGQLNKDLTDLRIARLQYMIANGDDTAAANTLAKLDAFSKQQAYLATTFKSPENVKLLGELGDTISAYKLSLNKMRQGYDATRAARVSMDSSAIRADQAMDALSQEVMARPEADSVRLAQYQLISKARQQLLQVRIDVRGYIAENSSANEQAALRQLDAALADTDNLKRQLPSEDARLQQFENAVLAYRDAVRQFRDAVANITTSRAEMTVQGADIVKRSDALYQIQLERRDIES
T1 sequence (Q9I0I6 33-205): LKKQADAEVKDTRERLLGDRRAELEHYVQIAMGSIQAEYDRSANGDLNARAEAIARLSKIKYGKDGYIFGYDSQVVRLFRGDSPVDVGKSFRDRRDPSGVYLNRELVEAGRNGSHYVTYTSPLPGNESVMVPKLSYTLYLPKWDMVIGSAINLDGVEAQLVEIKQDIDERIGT
T6 sequence (Q88R14 51-276): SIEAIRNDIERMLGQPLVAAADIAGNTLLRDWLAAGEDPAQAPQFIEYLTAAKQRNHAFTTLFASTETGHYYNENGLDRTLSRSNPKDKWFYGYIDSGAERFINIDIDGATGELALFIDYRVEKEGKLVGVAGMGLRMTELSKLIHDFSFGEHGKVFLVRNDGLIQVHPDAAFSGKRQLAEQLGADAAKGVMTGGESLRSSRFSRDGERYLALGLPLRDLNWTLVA
Chain of McpU-LBD (Q88NI1 50-284): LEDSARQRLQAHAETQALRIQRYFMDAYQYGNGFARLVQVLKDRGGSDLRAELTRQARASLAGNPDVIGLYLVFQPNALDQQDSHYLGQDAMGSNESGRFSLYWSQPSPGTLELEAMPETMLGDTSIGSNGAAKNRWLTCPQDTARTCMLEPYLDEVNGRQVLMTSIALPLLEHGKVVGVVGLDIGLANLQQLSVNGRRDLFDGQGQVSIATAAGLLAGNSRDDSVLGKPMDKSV
Chain of TodS-Nter (E0X9C7 1-584): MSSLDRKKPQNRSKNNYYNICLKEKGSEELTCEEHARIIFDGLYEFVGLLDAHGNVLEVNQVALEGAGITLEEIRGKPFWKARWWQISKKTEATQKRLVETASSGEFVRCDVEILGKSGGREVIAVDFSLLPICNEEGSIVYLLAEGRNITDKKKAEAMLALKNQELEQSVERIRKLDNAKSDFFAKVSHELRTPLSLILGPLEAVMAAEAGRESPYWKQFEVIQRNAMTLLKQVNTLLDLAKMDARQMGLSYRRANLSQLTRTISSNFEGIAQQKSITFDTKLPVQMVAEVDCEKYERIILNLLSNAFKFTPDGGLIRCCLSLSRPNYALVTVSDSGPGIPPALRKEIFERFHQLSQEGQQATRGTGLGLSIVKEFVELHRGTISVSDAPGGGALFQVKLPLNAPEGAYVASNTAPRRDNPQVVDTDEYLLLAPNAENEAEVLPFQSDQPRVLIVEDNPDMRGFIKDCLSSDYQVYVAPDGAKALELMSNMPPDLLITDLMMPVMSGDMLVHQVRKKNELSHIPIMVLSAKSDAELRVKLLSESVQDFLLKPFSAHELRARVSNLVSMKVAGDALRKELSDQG
Chain of AdmX-LBD (P0DV33 91-304): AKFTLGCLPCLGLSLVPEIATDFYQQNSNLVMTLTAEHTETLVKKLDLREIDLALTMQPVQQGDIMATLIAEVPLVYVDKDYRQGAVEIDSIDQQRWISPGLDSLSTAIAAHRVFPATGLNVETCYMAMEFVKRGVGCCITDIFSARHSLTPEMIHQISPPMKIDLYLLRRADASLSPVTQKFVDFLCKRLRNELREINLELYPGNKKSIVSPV
T11 sequence (G3XD24 32-276): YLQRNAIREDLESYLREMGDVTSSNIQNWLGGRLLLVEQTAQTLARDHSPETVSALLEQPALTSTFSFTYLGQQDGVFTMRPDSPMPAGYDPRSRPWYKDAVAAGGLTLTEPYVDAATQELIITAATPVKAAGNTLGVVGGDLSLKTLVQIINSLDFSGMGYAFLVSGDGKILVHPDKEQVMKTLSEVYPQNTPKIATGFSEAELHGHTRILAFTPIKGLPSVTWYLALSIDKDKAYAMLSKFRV
Chain of McpV-LBD (Q7APD1 entry or part of it): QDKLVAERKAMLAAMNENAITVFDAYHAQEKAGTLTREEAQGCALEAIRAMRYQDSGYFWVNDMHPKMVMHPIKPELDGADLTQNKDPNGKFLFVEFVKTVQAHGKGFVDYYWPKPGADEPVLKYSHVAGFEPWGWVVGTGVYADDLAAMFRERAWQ
T5 sequence (P07017 whole entry): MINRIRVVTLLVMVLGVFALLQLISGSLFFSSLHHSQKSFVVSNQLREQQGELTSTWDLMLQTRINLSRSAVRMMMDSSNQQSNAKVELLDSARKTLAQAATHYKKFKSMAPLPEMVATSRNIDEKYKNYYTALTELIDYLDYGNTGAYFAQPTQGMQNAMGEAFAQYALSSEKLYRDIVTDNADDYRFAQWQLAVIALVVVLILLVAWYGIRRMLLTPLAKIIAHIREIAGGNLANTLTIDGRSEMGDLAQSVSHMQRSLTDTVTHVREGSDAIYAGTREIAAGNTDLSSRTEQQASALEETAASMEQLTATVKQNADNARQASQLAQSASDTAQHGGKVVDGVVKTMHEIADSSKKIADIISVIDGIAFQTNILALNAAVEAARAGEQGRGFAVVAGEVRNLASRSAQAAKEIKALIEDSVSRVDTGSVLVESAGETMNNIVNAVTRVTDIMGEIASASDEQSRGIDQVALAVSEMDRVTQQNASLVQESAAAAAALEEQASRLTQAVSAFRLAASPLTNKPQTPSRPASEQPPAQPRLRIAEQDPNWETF
T10 sequence (Q88JK6 44-196): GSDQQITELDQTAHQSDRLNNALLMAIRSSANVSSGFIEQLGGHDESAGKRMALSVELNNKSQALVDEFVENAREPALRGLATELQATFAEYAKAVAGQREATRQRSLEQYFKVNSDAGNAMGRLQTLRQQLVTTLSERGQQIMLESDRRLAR
T7 sequence (Q88D09 45-282): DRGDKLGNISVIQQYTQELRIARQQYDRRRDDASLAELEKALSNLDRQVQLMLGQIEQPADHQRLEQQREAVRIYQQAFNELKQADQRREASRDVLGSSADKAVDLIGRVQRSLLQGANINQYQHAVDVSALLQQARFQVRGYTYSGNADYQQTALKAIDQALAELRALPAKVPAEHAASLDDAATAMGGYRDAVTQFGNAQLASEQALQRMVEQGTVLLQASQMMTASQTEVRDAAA

O=C(O)C[C@H](O)C(=O)O [L-malate]
width of pH range of high-affinity binding (CtpM-LBD): 4.5 pH units
pH optimum (CtpM-LBD; 25°C): 6.5
pH range of binding (CtpM-LBD; [5]): 4.5-9.0
Kd (CtpM-LBD; 25°C, pH 6.5, read-out: KD at pH optimum): 38.7 µM
EC50 (McpS-Tar; pH 5.5): 9.38 ± 1.9 µM
EC50 (McpS-Tar; pH 7.0): 2.18 ± 0.41 µM
EC50 (McpS-Tar; pH 8.5): 7.66 ± 1.9 µM
pH optimum (McpS-LBD): 5.5
pH range of binding (McpS-LBD; [6]): 3.0-10.0
Kd (McpS-LBD; pH 5.5, read-out: KD at pH optimum): 4 µM

N[C@@H](CC(=O)O)C(=O)O [L-aspartate]
Tm of Tar-LBD thermal unfolding (Tar-LBD [1]; pH 3.5, two transitions): 44.28 ºC and 64.51 ºC
Tm of Tar-LBD thermal unfolding (Tar-LBD [1]; pH 5.0): 47.73 ºC
ΔH of Tar-LBD thermal unfolding (Tar-LBD [1]; pH 5.0): 106.4 kcal/mol
Tm of Tar-LBD thermal unfolding (Tar-LBD [1]; pH 7.0, two transitions): 36.48 ºC and 42.20 ºC
Tm of Tar-LBD thermal unfolding (Tar-LBD [1]; pH 10.0): 35.11 ºC
ΔH of Tar-LBD thermal unfolding (Tar-LBD [1]; pH 10.0): 98.6 kcal/mol
pH optimum (Tar-LBD [2]; 25°C): 5.0
pH range of binding (Tar-LBD [2]; 25°C): 3.0-10.5
pH range of binding (Tar-LBD [2]; 25°C, listed as L-Asp): ≤ 10.5
Kd (Tar-LBD [2]; 25°C, pH 5.0, read-out: KD at pH optimum): 0.4 µM
width of pH range of high-affinity binding (Tar-LBD [2]; pH 3.0 to 10.5): 7.5 pH units
EC50 (Tar; pH 5.5): 0.166 ± 0.02 µM
EC50 (Tar; pH 7.0): 0.202 ± 0.02 µM
EC50 (Tar; pH 8.5): 0.077 ± 0.01 µM
EC50 (Tar; pH 9.5): 0.141 ± 0.02 µM
effect on Tar-LBD monomer-dimer equilibrium (Tar-LBD [3]): shifted the equilibrium almost completely to the dimeric species

CCC(=O)O [Propionate]
width of pH range of high-affinity binding (McpV-LBD): 6.5 pH units
pH optimum (McpV-LBD; 15°C): 7.0
pH range of binding (McpV-LBD; [7]): 5.0-11.5
Kd (McpV-LBD; 15°C, pH 7.0, read-out: KD at pH optimum): 33.1 µM

Nc1ncnc2[nH]cnc12 [Adenine]
pH optimum (McpH-LBD): 5.0
pH range of binding (McpH-LBD; [6]): 3.5-10.0
Kd (McpH-LBD; pH 5.0, read-out: KD at pH optimum): 1.68 µM

O=C(O)CC(O)(CC(=O)O)C(=O)O [Citrate]
pH optimum (McpQ-LBD): 6.0
Kd (McpQ-LBD; [8]): 153 µM

OC[C@H]1O[C@H](O[C@H]2[C@H](O)[C@@H](O)[C@H](O)O[C@@H]2CO)[C@H](O)[C@@H](O)[C@@H]1O [D-maltose]
width of pH range of ligand recognition (MBP): 8.5 pH units
pH optimum (MBP; 15°C): 9.0
pH range of binding (MBP; [7]): 2.5-11.0

N#Cc1ccccc1 [Benzonitrile]
pH optimum (TtgV): 6.0
pH range of binding (TtgV; [6]): 5.0-9.0
Kd (TtgV; [8]): 67.6 µM

O=C(O)[C@]1(O)C[C@@H](O)[C@@H](O)[C@H](O)C1 [Quinate]
Kd (PcaY_PP-LBD): 1.22 µM
pH optimum (PcaY_PP-LBD; ITC, 25°C): 5.0
pH range of binding (PcaY_PP-LBD; [9]): 3.5-11.5
width of pH profile of binding (PcaY_PP-LBD; ITC, pH 3.5-11.5): 8 pH units

O=C(O)C(=O)Cc1c[nH]c2ccccc12 [Indole-3-pyruvic acid]
Kd (AdmX-LBD): 12.7 µM
pH optimum (AdmX-LBD; ITC, 25°C): 8.0
pH range of binding (AdmX-LBD; [9]): 7.5-8.0

Cc1ccccc1 [Toluene]
Kd (TodS-Nter): 0.25 µM
width of pH range of ligand recognition (TodS-Nter; ITC): 4 pH units
pH optimum (TodS-Nter; ITC, 25°C): 6.5
pH range of binding (TodS-Nter; [9]): 5.5-9.5

NCCCCN [Putrescine]
Kd (McpU-LBD): 0.7 µM
pH optimum (McpU-LBD; ITC, 25°C): 8.5
pH range of binding (McpU-LBD; [9]): 4.5-11.5

C[C@H](N)C(=O)O [L-alanine]
pH of optimal chemotactic responses (P. aeruginosa PAO1): 7.0
pH optimum (PctA-LBD; 25°C): 5.5
pH range of binding (PctA-LBD; [5]): 3.0-11.5
Kd (PctA-LBD; average over the pH range 3.0 to 11.0, read-out: average dissociation constant (KD)): 1.26 ± 0.7 µM
Kd (PctA-LBD; pH 3.0, read-out: dissociation constant (KD)): 1.3 µM
width of pH range of high-affinity binding (PctA-LBD; pH 3.0 to 11.5): 8.5 pH units
Kd (PctA-LBD; pH 9.0, read-out: dissociation constant (KD)): 0.91 µM
Kd (PctA-LBD; pH 11.0, read-out: dissociation constant (KD)): 3.9 µM

B1: Tar-LBD (ligand-binding domain of the aspartate chemoreceptor Tar of E. coli) (domain or fragment, E. coli K12, UniProt P07017 31-188, looked up)
chain: SSLHHSQKSFVVSNQLREQQGELTSTWDLMLQTRINLSRSAVRMMMDSSNQQSNAKVELLDSARKTLAQAATHYKKFKSMAPLPEMVATSRNIDEKYKNYYTALTELIDYLDYGNTGAYFAQPTQGMQNAMGEAFAQYALSSEKLYRDIVTDNADDYR
notes: Cloned into the NdeI and BamHI sites of pET28b(+) and purified on a HisTrap column; In solution it is a rapidly interchanging mixture of monomer and dimer; also called E. coli Tar-LBD; LBD of the Tar chemoreceptor; source: E. coli BL21(DE3), purified (HisTrap)
stoichiometry N [4]: 2
